From article PMC11610403 (Journal of thrombosis and haemostasis : JTH, 2024)

Tests used:
[1] = tested on: caspase-1 activity in activated THP-1 cells; experiment: Caspase-1 activity assay in stimulated THP-1 cells; type: cell-based, human; conditions: P3 peptide in the presence of P1-47-66 (1.0 nM), Figure 2A
[2] = tested on: vascular leakage; conditions: given in vivo to mice in the absence of APC or any P1 peptide; cited from earlier work

| Substance | synergism with P1-47-66 for reducing caspase-1 activity [1] | vascular leakage in mice [2] |
| --- | --- | --- |
| P3-51-65: PAR3-derived peptide, residues 51-65 (FPFSALEGWTGATIT; UniProt O00254 51-65, looked up, fragment) | similarly showed synergism |  |
| P3-42-65: PAR3-derived peptide comprising residues 42-65 (GAPPNSFEEFPFSALEGWTGATIT; UniProt O00254 42-65, looked up, fragment) | reduces caspase-1 activity synergistically | reduce vascular leakage |
